These results are taken from patent US10342818B2, “Dual-action compounds targeting adenosine A2A receptor and adenosine transporter for prevention and treatment of neurodegenerative diseases” (Academia Sinica, priority 2009, dated 2019).

Entries after “also recorded” stand apart in the source; their conditions may differ. Like-named read-outs stand apart in the source and are kept apart here.

For series [1], the target named is T1, equilibrative nucleoside transporter 1 (ENT1) (Cavia porcellus, UniProt H0V4R7).
T1 construct: Membrane fractions collected from the cerebral cortex of Duncan Hartley derived guinea pigs; tissue MDS Pharma Services Taiwan (assay provider); host or cells: guinea pig cerebral cortex membranes
T1 sequence (H0V4R7 1-461): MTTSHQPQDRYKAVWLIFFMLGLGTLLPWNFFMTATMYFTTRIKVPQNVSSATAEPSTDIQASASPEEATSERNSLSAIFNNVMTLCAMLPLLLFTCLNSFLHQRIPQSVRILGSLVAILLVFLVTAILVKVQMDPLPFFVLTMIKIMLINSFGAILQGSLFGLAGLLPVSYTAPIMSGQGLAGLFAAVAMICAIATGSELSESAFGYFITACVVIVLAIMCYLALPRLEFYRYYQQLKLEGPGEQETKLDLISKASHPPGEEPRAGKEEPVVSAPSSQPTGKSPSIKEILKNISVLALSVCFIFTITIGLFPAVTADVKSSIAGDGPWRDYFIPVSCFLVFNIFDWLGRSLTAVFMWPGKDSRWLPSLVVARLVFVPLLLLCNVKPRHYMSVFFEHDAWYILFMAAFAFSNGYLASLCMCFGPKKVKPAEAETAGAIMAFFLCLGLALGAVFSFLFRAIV
Briefly: Radioligand binding assay for adenosine transporters (3H-NBTI, cerebral cortex membranes). Also on record: species or system guinea pig. Conditions: for Binding with / activity against ENT1, result in words: radioligand binding; for Ki: guinea pig equilibrium transporter 1, cerebral cortex membranes, 3H-NBTI 0.5 nM. The source says:
The pharmacological properties of the prepared adenosine analogues were characterized by MDS Pharma Services using radioligand binding assays. […] Except for 11 and 15, the adenosine derivatives having modification at the C-5′ position appeared to deteriorate their binding with A2AR, though they still maintained high affinity with ENT1.

In series [2] the test system is PC12 cells. The note with it: compound isolated from Gastrodia elata, earlier report; cited from earlier work.
The subject of series [3] is PC12 cells. As to the kind of experiment: MTT metabolism assay, rescue of serum-deprived PC12 cells from apoptosis. The note with it: 0.01 μM, 24 h. The series is classed as cell-based. An excerpt: Cell viability was monitored by the MTT assay, and is expressed as a percentage of the MTT activity measured in the serum-containing group. […] Collectively, the dual function of these compounds in activation of adenosine receptor and in inhibition of adenosine transporter might synergistically increase the effective concentration of adenosine, especially when these two proteins are in proximity.
PC12 cells purchased from ATCC (Manassas, Va., USA) were maintained in Dulbecco's modified Eagle's medium (DMEM) supplemented with 10% horse serum and 5% fetal bovine serum and incubated in a CO2 incubator (5%) at 37° C. Survival was assessed by the 3-(4,5-dimethylthiazol-2-yl)-2,5-diphenyltetrazolium bromide (MTT) metabolism assay as described elsewhere.^49,50 In brief, cells grown on 150-mm plates were washed three times with PBS and resuspended in DMEM. Suspended cells (1×10^4 cells) were plated on 96-well plates and treated with or without the indicated reagent. After incubation for 24 h, MTT (0.5 mg/mL) was added to the medium and incubated for 3 h. After discarding the medium, DMSO (100 μL) was then applied to the well to dissolve the formazan crystals derived from the mitochondrial cleavage of the tetrazolium ring by live cells. The absorbance at 570/630 nm in each well was measured on a micro-enzyme-linked immunosorbent assay (ELISA) reader.

The target of the next series is human A2A receptor (Homo sapiens, UniProt P29274). As to the kind of experiment: Radioligand binding assay of the A2A receptor (3H-CGS21680, MDS Pharma Services). The note with it: for Binding with A2AR, result in words: radioligand binding.
Chain of human A2A receptor (P29274 whole entry): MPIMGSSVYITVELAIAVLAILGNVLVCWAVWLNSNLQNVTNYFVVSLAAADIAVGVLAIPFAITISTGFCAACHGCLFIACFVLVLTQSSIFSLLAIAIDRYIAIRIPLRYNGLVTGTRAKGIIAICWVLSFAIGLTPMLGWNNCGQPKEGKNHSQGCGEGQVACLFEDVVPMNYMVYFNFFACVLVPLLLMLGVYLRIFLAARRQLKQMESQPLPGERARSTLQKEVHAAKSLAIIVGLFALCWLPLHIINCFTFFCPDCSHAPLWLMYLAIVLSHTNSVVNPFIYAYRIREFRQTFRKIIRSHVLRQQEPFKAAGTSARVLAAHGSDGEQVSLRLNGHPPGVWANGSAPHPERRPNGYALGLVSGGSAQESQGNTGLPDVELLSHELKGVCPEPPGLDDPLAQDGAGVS

Method for human A2A receptor: Radioligand binding assays were performed by MDS Pharma Services Taiwan (Taipei, Taiwan) using standard binding protocols. For the binding assay of the A2A receptor,^46 membrane proteins collected from HEK293 cells overexpressing the human A2A receptor were incubated in reaction buffer [50 mM Tris-HCl (pH 7.4), 10 mM MgCl2, 1 mM EDTA, and 2 U/mL adenosine deaminase] containing ^3H-CGS21680 (50 nM) for 90 min at 25° C. Nonspecific binding was assessed in the presence of 50 μM adenosine-5′-N-ethylcarboxamide (NECA).

With `CCNC(=O)C1OC(n2cnc3c(N)nc(NCCc4ccc(CCC(=O)O)cc4)nc32)C(O)C1O` (centres unmarked) [CGS, 6-amino-9-(5-ethylcarbamoyl-3,4-dihydroxy-oxolan-2-yl)-2-{2-[4-(2-carboxyethyl)phenyl]ethylamino}purine, reference compound], the “Binding with / activity against ENT1, result in words” value (shortened to “Binding with / activity against ENT1”) in series [1] is given as “lack the activity against ENT1; also recorded: no inhibitory activity toward hENT1”.
For orientation: Ki means the equilibrium dissociation constant of an inhibitor or competing ligand from its target. As for `OC[C@H]1O[C@@H](n2cnc3c(NCc4ccc(O)cc4)ncnc32)[C@H](O)[C@@H]1O` [Compound 1, N^6-(4-Hydroxybenzyl)adenosine], the “Prevention of apoptosis of serum-deprived PC12 cells (previously reported)” value in the series on PC12 cells [2] is on record as “prevented apoptosis of serum-deprived PC12 cells”. Also, in series [1], the inhibition constant Ki was found to be 538 nM and the “Binding with / activity against ENT1” value is given as “sub-micromolar range”. Moreover, the “Rescue of PC12 cells from apoptosis evoked by serum withdrawal (cell viability, MTT)” value with PC12 cells [3] is on record as “rescued PC12 cells from the apoptosis evoked by serum withdrawal”. Besides, the “Binding with A2AR, result in words” value at human A2A receptor is “low micromolar”. Also, the inhibition constant (Ki) on human A2A receptor (read-out: Ki A2A-R, human adenosine A2A receptor, HEK293 membranes, 3H-CGS21680 50 nM) turned out to be 2620 nM.
Take `CC1(C)O[C@@H]2[C@H](O1)[C@@H](CO)O[C@H]2n1cnc2c(NCc3ccc(O)cc3)ncnc21` [Compound 1-acetonide, 1-acetonide]: the Ki (in series [1]; on human A2A receptor) was more than 100000 nM throughout.
On to `COc1ccc(CNc2ncnc3c2ncn3[C@@H]2O[C@H](CO)[C@@H](O)[C@H]2O)cc1` [Compound 3, N^6-(4-methoxybenzyl)adenosine], for which the Ki is 318 nM in series [1] and 30100 nM at human A2A receptor.
Regarding `OC[C@H]1O[C@@H](n2cnc3c(NCCc4c[nH]c5ccccc45)ncnc32)[C@H](O)[C@@H]1O` [Compound 6, N^6-(3-Indolylethyl)adenosine], in series [1], the “Binding with / activity against ENT1” value is reported as “sub-micromolar range”. Besides, the “Rescue of PC12 cells from apoptosis evoked by serum withdrawal (cell viability, MTT)” value in the series with PC12 cells [3] was “rescued PC12 cells from the apoptosis evoked by serum withdrawal equally as well as 1”. The “Binding with A2AR, result in words” value at human A2A receptor was “low micromolar”. The “Binding affinity to A2AR of compound 6 relative to compound 11” value at human A2A receptor (ratio of Ki values) turned out to be 10 fold.
For the compound `COc1ccc(CNc2ncnc3c2ncn3[C@@H]2O[C@H](CCl)[C@@H](O)[C@H]2O)cc1` [Compound 7], the Ki is 2980 nM in series [1] and more than 100000 nM at human A2A receptor.
In turn, `COc1ccc(CNc2ncnc3c2ncn3[C@@H]2O[C@H](CN=[N+]=[N-])[C@H](O)C2O)cc1` (some centres unmarked) [Compound 8] registered a Ki in series [1] of 581 nM.
The term melting point denotes the temperature, or range, at which the solid turns liquid. Take `COc1ccc(CNc2ncnc3c2ncn3[C@@H]2O[C@H](CNC(C)=O)[C@@H](O)[C@H]2O)cc1` [Compound 9, 5′-Acetamido-5′-deoxy-N^6-(4-methoxybenzyl)adenosine]: the melting point fell in the range of 121.1 to 121.6 °C. This compound also gave an inhibition constant Ki in series [1] of 1430 nM. Further, the inhibitory constant (Ki) at human A2A receptor is more than 100000 nM.
Take `COc1ccc(CNc2ncnc3c2ncn3[C@@H]2O[C@H](CNS(=O)(=O)c3ccc(C)cc3)[C@@H](O)[C@H]2O)cc1` [Compound 10]: the inhibition constant Ki in series [1] is 200 nM; at human A2A receptor, more than 100000 nM.
The compound `COc1ccc(CNc2ncnc3c2ncn3[C@@H]2O[C@H](Cn3cc(C)nn3)[C@@H](O)[C@H]2O)cc1` [Compound 11, 5′-Deoxy-5′-(4-methyl-1,2,3-triazol-1-yl)-N^6-(4-methoxybenzyl)adenosine] showed a melting point of 183 to 183.2 °C. This compound yielded a Ki in series [1] of 960 nM. The compound further registered an inhibition constant Ki at human A2A receptor of 41800 nM.
As for `CCCCc1cn(C[C@H]2O[C@@H](n3cnc4c(NCc5ccc(OC)cc5)ncnc43)[C@H](O)[C@@H]2O)nn1` [Compound 12], the figures for the inhibition constant Ki (in series [1]; on human A2A receptor) were 511 nM and more than 100000 nM, respectively.
For `CCCCCCc1cn(C[C@H]2O[C@@H](n3cnc4c(NCc5ccc(OC)cc5)ncnc43)[C@H](O)[C@@H]2O)nn1` [Compound 13] the same measures were 52 nM and more than 100000 nM.
`COc1ccc(CNc2ncnc3c2ncn3[C@@H]2O[C@H](Cn3cc(Cc4ccccc4)nn3)[C@@H](O)[C@H]2O)cc1` [Compound 14]: the Ki was 116 nM in series [1] and more than 100000 nM at human A2A receptor.
Turning to `CCNC(=O)C1OC(n2cnc3c(NCc4ccc(O)cc4)ncnc32)C(O)C1O` (centres unmarked) [Compound 15, 3,4-Dihydroxy-5-[6-(4-hydroxybenzylamino)-purin-9-yl]-tetrahydrofuran-2-carboxylic Acid Ethylamide], the melting point is 179.7 to 180.5 °C. Further, the inhibitory constant (Ki) in series [1] is more than 10000 nM. The compound further showed a Ki at human A2A receptor of 20300 nM.
In the case of `COc1ccc(CNc2ncnc3c2ncn3C2OC(c3nnn[nH]3)C(O)C2O)cc1` (centres unmarked) [Compound 16, 2-[6-(4-Methoxybenzylamino)-purin-9-yl]-5-(1H-tetrazol-5-yl)-tetrahydrofuran-3,4-diol], the melting point fell in the range of 210 to 210.6 °C. The affinity in series [1] corresponds to a Ki of 1170 nM. The Ki at human A2A receptor is more than 100000 nM.
In turn, `O=[N+]([O-])c1ccc(CSc2ncnc3c2ncn3[C@@H]2O[C@H](CO)[C@@H](O)[C@H]2O)cc1` [NBTI, S-(4-nitrobenzyl)-6-thioinosine, reference compound] had an inhibition constant Ki in series [1] of 0.29 nM. Besides, on human A2A receptor, the Ki was more than 10000 nM and the “Binding with A2AR, result in words” value is on record as “no binding ability with A2AR”.
